# Assay results taken from EP4567040A1, “CRYSTAL FORM OF FUSED TRICYCLIC DERIVATIVE AND PREPARATION METHOD” (Jiangsu Hengrui Pharmaceuticals Co., Ltd., priority 2022, dated 2024).
# Columns and labels:
# [1] = target: T1, CDK1/CyclinB (Homo sapiens, UniProt P06493); experiment: Kinase activity assay, ADP-Glo (CDK1/CyclinB); assay type: biochemical; conditions: Table 18; read-out: CDK1/B IC50
# T1 construct: purchased proqinase 0134-0135-1
# [2] = target: T2, human PXR (Homo sapiens, UniProt O75469); experiment: PXR induction assay in DPX2 cells (luciferase reporter); assay type: cell-based; conditions: for fold induction at 24 h, 0.123 µM: compound concentration 0.123 µM; for fold induction at 24 h, 10 µM: compound concentration 10.0 µM
# T2 construct: host or cells: DPX2 (HepG2 stably transfected)
# T2 sequence (O75469 1-434): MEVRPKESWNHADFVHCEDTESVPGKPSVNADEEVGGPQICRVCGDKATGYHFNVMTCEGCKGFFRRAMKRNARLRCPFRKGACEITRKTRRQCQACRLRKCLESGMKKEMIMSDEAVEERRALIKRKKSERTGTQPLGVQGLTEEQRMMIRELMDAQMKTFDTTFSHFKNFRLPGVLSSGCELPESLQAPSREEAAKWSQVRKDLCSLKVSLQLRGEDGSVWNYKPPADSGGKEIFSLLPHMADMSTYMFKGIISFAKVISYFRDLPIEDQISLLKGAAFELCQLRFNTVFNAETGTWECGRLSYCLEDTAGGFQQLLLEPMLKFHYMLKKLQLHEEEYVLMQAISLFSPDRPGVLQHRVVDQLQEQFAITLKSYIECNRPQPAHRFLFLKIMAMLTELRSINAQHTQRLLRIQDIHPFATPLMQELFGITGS
# Procedure: • 1. […] The final concentration of DMSO was 0.1%. […] The reagent was gently and well mixed, and the mixture was incubated and well mixed at room temperature for 5 min.
# [3] = test system: DPX2 (HepG2 cells were stably transfected with the human PXR gene and the fluorescent reporter gene) cells; experiment: Cell viability in the PXR induction assay (CellTiter-Fluor); assay type: cell-based
# Procedure: • 1. The potential of the test compounds to induce the activity of drug metabolism enzymes through in vitro activation of PXR was evaluated. […] […] Experimental procedures • 3.1. Preparation for plating • 1) 50 mL of FBS was added to 450 mL of cell culture medium. • 2) DPX2 cells were cultured in a T-75 culture flask in a 37 °C, 5% CO2 incubator with 95% relative humidity. When covering 80-90% of the bottom of the culture flask, the cells were digested. • 3) The top layer of cells cultured in the T-75 culture flask was washed with 8 mL of PBS, and the PBS was pipetted off. The cells were digested with 3 mL of pancreatin at 37 °C for about 5 min or until they were floating in the pancreatin. 10 mL (excessive) of a serum-containing culture medium was added to neutralize the pancreatin. • 4) The cell suspension was transferred to a conical-bottomed centrifuge tube and centrifuged at 120 g for 10 min. The cells were suspended in the plating culture medium, and the concentration was adjusted to 4 × 10^5 cells/mL. The diluted cells were added to a 96-well cell culture plate at 100 µL/well. The culture plate was placed in an incubator and incubated at 37 °C for 24 h before the PXR activation experiment. • 3.2. […] […] The final concentration of DMSO was 0.1%. 1 µL of DMSO was added to a well containing 1 mL of pre-incubated culture medium as a solvent control. • 2) The cell culture plate was taken out of the incubator, and the culture medium was discarded. The test compounds and the positive compound were added to appropriate wells at 100 µL/well, and each group was tested in duplicate. The cell plate was placed in an incubator and incubated for 24 h. • 3.3. Quantification of PXR activation • 1) After […] of compound treatment, PXR activation was quantified for the culture. • 2) The CellTiter-Fluor™ cell viability assay kit and the One-Glo Luciferase reagent were equilibrated to room temperature. The GF-AFC (10 µL) substrate was added to Assay Buffer (10 mL) to form a 2× reagent, and the reagent was then diluted to 1× with 10 mL of PBS; the ONE-Glo substrate was added to the ONE-Glo Luciferase Assay buffer. • 3) The cell culture plate was taken out of the incubator, and the culture medium in each well was discarded. The plate was washed twice with PBS. The 1× CellTiter-Fluor™ reagent was added to a sterilized reagent reservoir, and 50 µL was transferred to each well using a multi-channel pipette. The plate was incubated at 37 °C for 30 min. • 4) The 96-well cell plate was taken out of the incubator, and the fluorescence in each well was measured using a microplate reader put in the fluorescence mode at an excitation wavelength of 400 nm and an emission wavelength of 505 nm. • 5) The ONE-Glo reagent was poured into a reagent reservoir, and then 50 µL was transferred to each well using a multi-channel pipette. The reagent was gently and well mixed, and the mixture was incubated and well mixed at room temperature for 5 min. After the incubation, the luminescence in each well was measured using a luminometer.
# The calculation formula for cell viability: Percent cell viability (%) = I(sample)/(I(vehicle) × 100 [formula]
# I(sample) represents the fluorescence intensity of the sample, and I(vehicle) represents the fluorescence intensity of 0.1% DMSO to cells.
# [4] = target: T3, CYP1A2 (Homo sapiens, UniProt P05177); experiment: biochemical
# T3 sequence (P05177 1-516): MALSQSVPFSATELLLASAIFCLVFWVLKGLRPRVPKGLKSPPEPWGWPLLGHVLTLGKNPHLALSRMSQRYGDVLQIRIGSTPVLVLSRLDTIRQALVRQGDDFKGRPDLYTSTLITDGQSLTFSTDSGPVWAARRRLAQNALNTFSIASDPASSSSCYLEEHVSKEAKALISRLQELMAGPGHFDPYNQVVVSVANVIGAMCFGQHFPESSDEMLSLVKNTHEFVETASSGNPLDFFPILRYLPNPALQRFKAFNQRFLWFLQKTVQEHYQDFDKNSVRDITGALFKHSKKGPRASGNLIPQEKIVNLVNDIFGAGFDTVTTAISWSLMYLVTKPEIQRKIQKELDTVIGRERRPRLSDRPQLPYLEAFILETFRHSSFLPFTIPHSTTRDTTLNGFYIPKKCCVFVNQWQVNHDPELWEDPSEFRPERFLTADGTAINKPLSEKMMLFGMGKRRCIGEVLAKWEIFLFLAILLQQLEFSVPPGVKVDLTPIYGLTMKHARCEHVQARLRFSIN
# Procedure: (§1) The effects of different concentrations of the test compounds on the metabolic reactions of phenacetin (CYP1A2), diclofenac sodium (CYP2C9), S-mephenytoin (CYP2C19), bufuralol hydrochloride (CYP2D6), and midazolam (CYP3A4/5) were assessed by liquid chromatography-tandem mass spectrometry (LC/MS/MS).
# (§2) Then, 200 µL of an acetonitrile solution containing 3% formic acid and 40 nM internal standard verapamil was added, and the mixture was centrifuged at 4000 rpm for 50 min. The mixture was cooled on ice for 20 min and centrifuged at 4000 rpm for 20 min to precipitate protein. 200 µL of the supernatant was taken for LC/MS/MS analysis.
# (§3) The peak area was calculated based on the chromatogram. The residual activity proportion (%) was calculated using the following formula: peak area ratio = peak area of metabolite / peak area of internal standard [formula]
# (§4) The half maximal inhibitory concentrations (IC50) against CYP were calculated using Excel XLfit 5.3.1.3.
# [5] = target: CYP2C9 (Homo sapiens, UniProt P11712); experiment: biochemical
# CYP2C9, sequence (P11712 whole entry): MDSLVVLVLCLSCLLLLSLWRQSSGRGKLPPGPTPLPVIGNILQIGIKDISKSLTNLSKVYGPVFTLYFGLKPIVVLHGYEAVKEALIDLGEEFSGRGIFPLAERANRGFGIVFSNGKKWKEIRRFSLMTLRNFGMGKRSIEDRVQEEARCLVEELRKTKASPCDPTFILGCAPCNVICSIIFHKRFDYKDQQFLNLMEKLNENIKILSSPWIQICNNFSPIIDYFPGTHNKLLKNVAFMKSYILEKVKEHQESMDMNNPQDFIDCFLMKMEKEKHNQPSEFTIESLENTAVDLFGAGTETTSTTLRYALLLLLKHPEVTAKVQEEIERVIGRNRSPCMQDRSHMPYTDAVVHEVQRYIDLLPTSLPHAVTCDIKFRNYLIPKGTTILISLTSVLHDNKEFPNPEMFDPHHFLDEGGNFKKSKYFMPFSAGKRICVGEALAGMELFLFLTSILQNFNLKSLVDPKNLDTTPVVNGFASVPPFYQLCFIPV
# Procedure: as §1, §2, §3, §4
# [6] = target: CYP2C19 (Homo sapiens, UniProt P33261); experiment: biochemical
# CYP2C19, sequence (P33261 whole entry): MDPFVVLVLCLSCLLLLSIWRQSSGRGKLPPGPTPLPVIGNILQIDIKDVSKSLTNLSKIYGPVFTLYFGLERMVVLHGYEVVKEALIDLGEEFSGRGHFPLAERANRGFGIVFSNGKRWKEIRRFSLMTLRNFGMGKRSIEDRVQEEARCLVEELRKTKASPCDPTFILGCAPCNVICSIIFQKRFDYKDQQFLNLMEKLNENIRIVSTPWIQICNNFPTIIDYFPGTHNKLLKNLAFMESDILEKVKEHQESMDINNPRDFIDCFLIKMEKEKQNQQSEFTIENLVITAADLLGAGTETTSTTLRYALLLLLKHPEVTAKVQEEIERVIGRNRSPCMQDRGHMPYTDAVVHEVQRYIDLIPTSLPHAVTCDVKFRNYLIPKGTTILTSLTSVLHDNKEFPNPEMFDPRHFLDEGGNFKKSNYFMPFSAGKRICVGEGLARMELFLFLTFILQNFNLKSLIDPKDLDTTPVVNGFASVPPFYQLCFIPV
# Procedure: as §1, §2, §3, §4
# [7] = target: CYP2D6 (Homo sapiens, UniProt P10635); experiment: biochemical
# CYP2D6, sequence (P10635 whole entry): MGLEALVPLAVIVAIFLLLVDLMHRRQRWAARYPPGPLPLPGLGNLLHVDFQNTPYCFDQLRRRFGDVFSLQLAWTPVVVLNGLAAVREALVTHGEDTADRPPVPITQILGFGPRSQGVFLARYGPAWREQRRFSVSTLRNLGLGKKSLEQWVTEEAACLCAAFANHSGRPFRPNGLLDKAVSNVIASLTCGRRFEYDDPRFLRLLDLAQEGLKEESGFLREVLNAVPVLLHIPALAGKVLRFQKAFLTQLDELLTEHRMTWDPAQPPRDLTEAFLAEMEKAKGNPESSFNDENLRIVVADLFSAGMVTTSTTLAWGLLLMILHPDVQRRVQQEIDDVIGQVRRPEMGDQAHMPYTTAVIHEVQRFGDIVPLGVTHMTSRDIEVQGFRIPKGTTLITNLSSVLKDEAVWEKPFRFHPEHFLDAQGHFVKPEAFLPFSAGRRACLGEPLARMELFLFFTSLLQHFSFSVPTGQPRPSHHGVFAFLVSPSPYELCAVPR
# Procedure: as §1, §2, §3, §4
# [8] = compound concentration 0.123 µM
# T1 sequence (P06493 whole entry): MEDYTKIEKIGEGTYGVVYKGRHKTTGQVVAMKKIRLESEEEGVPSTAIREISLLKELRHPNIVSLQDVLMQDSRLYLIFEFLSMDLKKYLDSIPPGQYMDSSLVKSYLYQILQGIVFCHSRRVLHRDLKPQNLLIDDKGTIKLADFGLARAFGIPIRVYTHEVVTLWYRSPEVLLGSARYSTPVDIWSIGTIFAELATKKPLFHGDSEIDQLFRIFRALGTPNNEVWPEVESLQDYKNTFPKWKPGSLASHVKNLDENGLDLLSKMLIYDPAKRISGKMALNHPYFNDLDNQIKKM
# T1 sequence (P14635 whole entry partner): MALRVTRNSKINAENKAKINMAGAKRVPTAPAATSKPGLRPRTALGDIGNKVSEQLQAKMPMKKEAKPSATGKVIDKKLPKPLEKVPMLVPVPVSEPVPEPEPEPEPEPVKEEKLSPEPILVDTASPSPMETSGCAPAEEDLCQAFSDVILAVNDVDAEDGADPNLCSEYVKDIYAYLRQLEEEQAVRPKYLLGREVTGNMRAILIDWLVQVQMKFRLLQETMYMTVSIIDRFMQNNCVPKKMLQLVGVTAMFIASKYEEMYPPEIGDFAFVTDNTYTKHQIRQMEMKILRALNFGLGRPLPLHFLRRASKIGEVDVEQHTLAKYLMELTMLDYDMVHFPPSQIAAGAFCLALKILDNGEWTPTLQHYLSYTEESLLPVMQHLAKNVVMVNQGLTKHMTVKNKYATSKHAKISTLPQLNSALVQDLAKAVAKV
Structure (SMILES),IC50 [1] [nM],"fold induction at 24 h, 0.123 µM [2]","fold induction at 24 h, 10 µM [2]","Cell viability (%) [3, 8] [%]",Cell viability (%) ([3]; compound concentration 10.0 µM),IC50 [4] [µM],IC50 [5] [µM],IC50 [6] [µM],IC50 [7] [µM]
"C[C@H]1COc2c(-c3nc(N[C@@H]4CCOC[C@H]4O)ncc3Cl)cc(F)c3nc(C(C)(C)O)n1c23 (single isomer, unassigned) [Isomer 1 with a retention time of 2.078 min]",> 1000,0.87,1.43,99.16,117.18,> 30,> 30,> 30,> 30
"C[C@@H]1COc2c(-c3nc(N[C@@H]4CCOC[C@H]4O)ncc3Cl)cc(F)c3nc(C(C)(C)O)n1c23 (single isomer, unassigned) [Isomer 2 with a retention time of 1.887 min]",> 1000,0.99,1.48,102.41,108.37,> 30,> 30,> 30,> 30
